ChEMBL document CHEMBL3046761, “Synthesis of 27-oxo, 27-hydroxymilbemycins A3 and A4 and novel 27-alkoxymilbemycins A3 and A4 from milbemycins A3 and A4 and their acaricidal activities” (2002)

Key:
[1] = system: Tetranychus urticae; experiment: Acaricidal activity against Tetranychus urticae (two-spotted spider mite) infected cowpea plant assessed as mortality at 1 ppm sprayed 24 hr post-infection measured after 3 days; type: functional
[2] = system: Tetranychus urticae; experiment: Acaricidal activity against Tetranychus urticae (two-spotted spider mite) infected cowpea plant assessed as mortality at 10 ppm sprayed 24 hr post-infection measured after 3 days; type: functional

Row | SMILES | mortality at 1 ppm [1] [%] | mortality at 10 ppm [2] [%]
1 | CC[C@H]1O[C@]2(CC[C@@H]1C)C[C@@H]1C[C@@H](C/C=C(\C)C[C@@H](C)/C=C/C=C(\C=O)[C@]3(O)[C@H](O)[C@H](O)C(C)=C[C@H]3C(=O)O1)O2 | 11 | 53
2 | CC[C@H]1O[C@]2(CC[C@@H]1C)C[C@@H]1C[C@@H](C/C=C(\C)C[C@@H](C)/C=C/C=C3\[C@H](OC)O[C@@H]4[C@H](O)C(C)=C[C@@H](C(=O)O1)[C@]34O)O2 [27-BETAMETHOXY MILBEMYCIN A4] | 19 | 87
3 | CC1=C[C@H]2C(=O)O[C@H]3C[C@@H](C/C=C(\C)C[C@@H](C)/C=C/C=C(\C=O)[C@]2(O)[C@H](O)[C@@H]1O)O[C@@]1(CC[C@H](C)[C@@H](C)O1)C3 | 7 | 17
4 | CCO[C@@H]1O[C@@H]2[C@H](O)C(C)=C[C@H]3C(=O)O[C@H]4C[C@@H](C/C=C(\C)C[C@@H](C)/C=C/C=C\1[C@]23O)O[C@@]1(CC[C@H](C)[C@@H](CC)O1)C4 [27-BETAETHOXY MILBEMYCIN A4] | 0 | 77
5 | CO[C@H]1O[C@@H]2[C@H](O)C(C)=C[C@H]3C(=O)O[C@H]4C[C@@H](C/C=C(\C)C[C@@H](C)/C=C/C=C\1[C@]23O)O[C@@]1(CC[C@H](C)[C@@H](C)O1)C4 [27-ALPHAMETHOXY MILBEMYCIN A3] | 8 | 72
6 | CC[C@H]1O[C@]2(CC[C@@H]1C)C[C@@H]1C[C@@H](C/C=C(\C)C[C@@H](C)/C=C/C=C3\C(O)O[C@@H]4[C@H](O)C(C)=C[C@@H](C(=O)O1)[C@]34O)O2 (some centres not stated) [27-HYDROXY MILBEMYCIN A4] | 11 | 53
7 | CC[C@H]1O[C@]2(CC[C@@H]1C)C[C@@H]1C[C@@H](C/C=C(\C)C[C@@H](C)/C=C/C=C3\[C@@H](OC)O[C@@H]4[C@H](O)C(C)=C[C@@H](C(=O)O1)[C@]34O)O2 [27-ALPHAMETHOXY MILBEMYCIN A4] | 17 | 92
8 | CC[C@H]1O[C@]2(CC[C@@H]1C)C[C@@H]1C[C@@H](C/C=C(\C)C[C@@H](C)/C=C/C=C3\CO[C@@H]4[C@H](O)C(C)=C[C@@H](C(=O)O1)[C@]34O)O2 [MILBEMYCIN A4] | 32 | 100
9 | CC[C@H]1O[C@]2(CC[C@@H]1C)C[C@@H]1C[C@@H](C/C=C(\C)C[C@@H](C)/C=C/C=C3\C(=O)O[C@@H]4[C@H](O)C(C)=C[C@@H](C(=O)O1)[C@]34O)O2 [27-OXOMILBEMYCIN A4] | 4 | 11
10 | CC1=C[C@H]2C(=O)O[C@H]3C[C@@H](C/C=C(\C)C[C@@H](C)/C=C/C=C4\C(=O)O[C@H]([C@@H]1O)[C@@]42O)O[C@@]1(CC[C@H](C)[C@@H](C)O1)C3 [27-OXOMILBEMYCIN A3] | 3 | 3
11 | CC1=C[C@H]2C(=O)O[C@H]3C[C@@H](C/C=C(\C)C[C@@H](C)/C=C/C=C4\C(O)O[C@H]([C@@H]1O)[C@@]42O)O[C@@]1(CC[C@H](C)[C@@H](C)O1)C3 (some centres not stated) [27-HYDROXY MILBEMYCIN A3] | 7 | 17
12 | CO[C@@H]1O[C@@H]2[C@H](O)C(C)=C[C@H]3C(=O)O[C@H]4C[C@@H](C/C=C(\C)C[C@@H](C)/C=C/C=C\1[C@]23O)O[C@@]1(CC[C@H](C)[C@@H](C)O1)C4 [27-BETAMETHOXY MILBEMYCIN A3] | 3 | 65
13 | CCO[C@H]1O[C@@H]2[C@H](O)C(C)=C[C@H]3C(=O)O[C@H]4C[C@@H](C/C=C(\C)C[C@@H](C)/C=C/C=C\1[C@]23O)O[C@@]1(CC[C@H](C)[C@@H](CC)O1)C4 [27-ALPHAETHOXY MILBEMYCIN A4] | 25 | 81
14 | CC1=C[C@H]2C(=O)O[C@H]3C[C@@H](C/C=C(\C)C[C@@H](C)/C=C/C=C4\CO[C@H]([C@@H]1O)[C@@]42O)O[C@@]1(CC[C@H](C)[C@@H](C)O1)C3 [MILBEMYCIN A3] | 3 | 69
15 | CC[C@H]1O[C@]2(CC[C@@H]1C)C[C@@H]1C[C@@H](C/C=C(\C)C[C@@H](C)/C=C/C=C3\[C@H](OC(C)C)O[C@@H]4[C@H](O)C(C)=C[C@@H](C(=O)O1)[C@]34O)O2 [27-BETAISOPROPOXY MILBEMYCIN A4] | 22 | 72
16 | CC[C@H]1O[C@]2(CC[C@@H]1C)C[C@@H]1C[C@@H](C/C=C(\C)C[C@@H](C)/C=C/C=C3\[C@@H](OC(C)C)O[C@@H]4[C@H](O)C(C)=C[C@@H](C(=O)O1)[C@]34O)O2 [27-ALPHAISOPROPOXY MILBEMYCIN A4] | 14 | 76
